Measured values: patent publication US12637424B2, “Pharmaceutical salt of an arylpyrrole derivative” (SENTINEL ONCOLOGY LIMITED, priority 2020, dated 2026)

Experiments:
Experiment in all cases: DiscoverX KinomeScreen competition binding assay (kinase selectivity panel)
[1] = biological target: T1, panel of ninety-seven kinases (Homo sapiens, UniProt P04629); conditions: NTRK1; screened at 3000 nM
T1 construct: purchased DiscoverX; host or cells: E. coli (BL21-derived, T7 phage display) or HEK-293
Procedure: (§1) This has been investigated by testing atropisomer A-2 for off-target activity against a panel of ninety-seven kinases distributed across the kinome at a concentration of 3 μM using the DiscoverX KinomeScreen assay. The DiscoverX KinomeScreen assay is a site-directed competition binding assay which measures the binding affinity of a compound to a kinase, by use of a solid supported control compound which can bind or capture the kinases in solution. In the absence of a kinase-inhibitor test compound, all of the kinase will bind to the solid support. If a kinase-inhibitor test compound is added to the assay mix, the amount of kinase binding to the solid support will be reduced, the extent of reduction being dependent on the potency of the test compound as a kinase inhibitor. […] For most assays, kinase-tagged T7 phage strains were grown in parallel in 24-well blocks in an E. coli host derived from the BL21 strain. E. coli were grown to log-phase and infected with T7 phage from a frozen stock (multiplicity of infection=0.4) and incubated with shaking at 32° C. until lysis (90-150 minutes). The lysates were centrifuged (6,000×g) and filtered (0.2 μm) to remove cell debris. The remaining kinases were produced in HEK-293 cells and subsequently tagged with DNA for qPCR detection. Streptavidin-coated magnetic beads were treated with biotinylated small molecule ligands for 30 minutes at room temperature to generate affinity resins for kinase assays. The liganded beads were blocked with excess biotin and washed with blocking buffer (SeaBlock (Pierce), 1% BSA, 0.05% Tween 20, 1 mM DTT) to remove unbound ligand and to reduce non-specific phage binding. […] Test compounds were prepared as 40× stocks in 100% DMSO and directly diluted into the assay. All reactions were performed in polypropylene 384-well plates in a final volume of 0.02 ml. […] The beads were then re-suspended in elution buffer (1×PBS, 0.05% Tween 20, 0.5 μM non-biotinylated affinity ligand) and incubated at room temperature with shaking for 30 minutes. The kinase concentration in the eluates was measured by qPCR. Compounds that bind the kinase active site and directly (sterically) or indirectly (allosterically) prevent kinase binding to the immobilized ligand, will reduce the amount of kinase captured on the solid support. […] The strength of binding of the test molecule to the kinase can be expressed as the percent control (% Ctrl) The compound(s) were screened at 3000 nM concentration, and results for primary screen binding interactions are reported as ‘% Ctrl’, where lower numbers indicate stronger hits in the matrix on the following page(s). [formula] • negative control=DMSO (100% Ctrl) • positive control=control compound (0% Ctrl)

[2] = biological target: T2, panel of ninety-seven kinases (Homo sapiens, UniProt O00750); conditions: PIK3C2B; screened at 3000 nM
T2 construct: purchased DiscoverX; host or cells: E. coli (BL21-derived, T7 phage display) or HEK-293
Procedure: as §1

[3] = system: panel of ninety-seven kinases; conditions: for % Ctrl @ 3 μM: screened at 3000 nM
Procedure: as §1

[4] = biological target: T3, panel of ninety-seven kinases (Homo sapiens, UniProt P43403); conditions: ZAP70; screened at 3000 nM
T3 construct: purchased DiscoverX; host or cells: E. coli (BL21-derived, T7 phage display) or HEK-293
Procedure: as §1

[5] = biological target: T4, panel of ninety-seven kinases (Homo sapiens, UniProt P42336); conditions: PIK3CA; screened at 3000 nM
T4 construct: purchased DiscoverX; host or cells: E. coli (BL21-derived, T7 phage display) or HEK-293
Procedure: as §1

[6] = biological target: T5, panel of ninety-seven kinases (Homo sapiens, UniProt P48736); conditions: PIK3CG; screened at 3000 nM
T5 construct: purchased DiscoverX; host or cells: E. coli (BL21-derived, T7 phage display) or HEK-293
Procedure: as §1

[7] = biological target: T6, panel of ninety-seven kinases (Homo sapiens, UniProt Q9Y463); conditions: DYRK1B; screened at 3000 nM
T6 construct: purchased DiscoverX; host or cells: E. coli (BL21-derived, T7 phage display) or HEK-293
Procedure: as §1

[8] = biological target: T7, panel of ninety-seven kinases (Homo sapiens, UniProt O15075); conditions: DCLK1; screened at 3000 nM
T7 construct: purchased DiscoverX; host or cells: E. coli (BL21-derived, T7 phage display) or HEK-293
Procedure: as §1

[9] = biological target: T8, panel of ninety-seven kinases (Homo sapiens, UniProt P35968); conditions: KDR; screened at 3000 nM
T8 construct: purchased DiscoverX; host or cells: E. coli (BL21-derived, T7 phage display) or HEK-293
Procedure: as §1

[10] = biological target: T9, panel of ninety-seven kinases (Homo sapiens, UniProt O96013); conditions: PAK4; screened at 3000 nM
T9 construct: purchased DiscoverX; host or cells: E. coli (BL21-derived, T7 phage display) or HEK-293
Procedure: as §1

[11] = biological target: T10, panel of ninety-seven kinases (Homo sapiens, UniProt Q02750); conditions: MAP2K1; screened at 3000 nM
T10 construct: purchased DiscoverX; host or cells: E. coli (BL21-derived, T7 phage display) or HEK-293
Procedure: as §1

[12] = biological target: T11, panel of ninety-seven kinases (Homo sapiens, UniProt Q00536); conditions: CDK16; screened at 3000 nM
T11 construct: purchased DiscoverX; host or cells: E. coli (BL21-derived, T7 phage display) or HEK-293
Procedure: as §1

[13] = biological target: T12, panel of ninety-seven kinases (Homo sapiens, UniProt O15111); conditions: CHUK; screened at 3000 nM
T12 construct: purchased DiscoverX; host or cells: E. coli (BL21-derived, T7 phage display) or HEK-293
Procedure: as §1

[14] = biological target: T13, panel of ninety-seven kinases (Homo sapiens, UniProt P50750); conditions: CDK9; screened at 3000 nM
T13 construct: purchased DiscoverX; host or cells: E. coli (BL21-derived, T7 phage display) or HEK-293
Procedure: as §1

[15] = biological target: T14, panel of ninety-seven kinases (Homo sapiens, UniProt P52333); conditions: JAK3; screened at 3000 nM
T14 construct: purchased DiscoverX; host or cells: E. coli (BL21-derived, T7 phage display) or HEK-293
Procedure: as §1

[16] = biological target: T15, panel of ninety-seven kinases (Homo sapiens, UniProt P07949); conditions: RET; screened at 3000 nM
T15 construct: purchased DiscoverX; host or cells: E. coli (BL21-derived, T7 phage display) or HEK-293
Procedure: as §1

[17] = biological target: T16, panel of ninety-seven kinases (Homo sapiens, UniProt O60674); conditions: JAK2; screened at 3000 nM
T16 construct: purchased DiscoverX; host or cells: E. coli (BL21-derived, T7 phage display) or HEK-293
Procedure: as §1

[18] = biological target: T17, panel of ninety-seven kinases (Homo sapiens, UniProt O14757); conditions: CHEK1; screened at 3000 nM
T17 construct: purchased DiscoverX; host or cells: E. coli (BL21-derived, T7 phage display) or HEK-293
Procedure: as §1

[19] = biological target: T18, panel of ninety-seven kinases (Homo sapiens, UniProt O14920); conditions: IKBKB; screened at 3000 nM
T18 construct: purchased DiscoverX; host or cells: E. coli (BL21-derived, T7 phage display) or HEK-293
Procedure: as §1

[20] = biological target: T19, panel of ninety-seven kinases (Homo sapiens, UniProt Q9BXA7); conditions: TSSK1B; screened at 3000 nM
T19 construct: purchased DiscoverX; host or cells: E. coli (BL21-derived, T7 phage display) or HEK-293
Procedure: as §1

[21] = biological target: T20, panel of ninety-seven kinases (Homo sapiens, UniProt Q9Y6R4); conditions: MAP3K4; screened at 3000 nM
T20 construct: purchased DiscoverX; host or cells: E. coli (BL21-derived, T7 phage display) or HEK-293
Procedure: as §1

[22] = biological target: T21, panel of ninety-seven kinases (Homo sapiens, UniProt P30530); conditions: AXL; screened at 3000 nM
T21 construct: purchased DiscoverX; host or cells: E. coli (BL21-derived, T7 phage display) or HEK-293
Procedure: as §1

T19 sequence (Q9BXA7 whole entry): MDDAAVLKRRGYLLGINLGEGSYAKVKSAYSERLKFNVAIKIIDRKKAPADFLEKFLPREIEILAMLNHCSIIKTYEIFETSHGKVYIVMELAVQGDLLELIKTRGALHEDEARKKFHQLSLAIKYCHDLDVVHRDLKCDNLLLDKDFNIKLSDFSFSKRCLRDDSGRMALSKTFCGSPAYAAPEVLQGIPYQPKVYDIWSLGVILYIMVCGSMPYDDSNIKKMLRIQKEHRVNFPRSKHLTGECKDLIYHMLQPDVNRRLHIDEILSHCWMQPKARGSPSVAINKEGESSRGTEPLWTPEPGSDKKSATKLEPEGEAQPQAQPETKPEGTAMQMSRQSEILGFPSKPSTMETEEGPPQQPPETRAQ
T12 sequence (O15111 whole entry): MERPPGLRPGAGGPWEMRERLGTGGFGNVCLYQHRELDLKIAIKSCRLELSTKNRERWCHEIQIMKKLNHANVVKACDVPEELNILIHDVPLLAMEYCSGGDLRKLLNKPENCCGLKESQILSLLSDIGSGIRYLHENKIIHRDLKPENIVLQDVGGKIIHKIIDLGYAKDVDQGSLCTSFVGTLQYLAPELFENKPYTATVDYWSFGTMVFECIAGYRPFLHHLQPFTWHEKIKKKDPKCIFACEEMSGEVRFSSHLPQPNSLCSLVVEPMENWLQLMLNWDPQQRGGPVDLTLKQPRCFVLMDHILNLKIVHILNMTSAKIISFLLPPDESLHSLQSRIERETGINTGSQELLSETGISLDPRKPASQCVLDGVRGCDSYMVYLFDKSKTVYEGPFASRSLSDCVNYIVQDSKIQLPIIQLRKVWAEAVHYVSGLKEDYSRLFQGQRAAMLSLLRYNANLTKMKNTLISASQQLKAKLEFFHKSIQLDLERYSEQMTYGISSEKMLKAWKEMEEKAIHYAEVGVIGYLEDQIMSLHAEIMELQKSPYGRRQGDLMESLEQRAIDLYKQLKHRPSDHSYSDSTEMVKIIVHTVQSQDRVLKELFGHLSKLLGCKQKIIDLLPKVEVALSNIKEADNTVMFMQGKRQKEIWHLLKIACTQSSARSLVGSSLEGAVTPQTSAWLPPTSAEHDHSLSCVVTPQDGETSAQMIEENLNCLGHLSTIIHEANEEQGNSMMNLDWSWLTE
T2 sequence (O00750 whole entry): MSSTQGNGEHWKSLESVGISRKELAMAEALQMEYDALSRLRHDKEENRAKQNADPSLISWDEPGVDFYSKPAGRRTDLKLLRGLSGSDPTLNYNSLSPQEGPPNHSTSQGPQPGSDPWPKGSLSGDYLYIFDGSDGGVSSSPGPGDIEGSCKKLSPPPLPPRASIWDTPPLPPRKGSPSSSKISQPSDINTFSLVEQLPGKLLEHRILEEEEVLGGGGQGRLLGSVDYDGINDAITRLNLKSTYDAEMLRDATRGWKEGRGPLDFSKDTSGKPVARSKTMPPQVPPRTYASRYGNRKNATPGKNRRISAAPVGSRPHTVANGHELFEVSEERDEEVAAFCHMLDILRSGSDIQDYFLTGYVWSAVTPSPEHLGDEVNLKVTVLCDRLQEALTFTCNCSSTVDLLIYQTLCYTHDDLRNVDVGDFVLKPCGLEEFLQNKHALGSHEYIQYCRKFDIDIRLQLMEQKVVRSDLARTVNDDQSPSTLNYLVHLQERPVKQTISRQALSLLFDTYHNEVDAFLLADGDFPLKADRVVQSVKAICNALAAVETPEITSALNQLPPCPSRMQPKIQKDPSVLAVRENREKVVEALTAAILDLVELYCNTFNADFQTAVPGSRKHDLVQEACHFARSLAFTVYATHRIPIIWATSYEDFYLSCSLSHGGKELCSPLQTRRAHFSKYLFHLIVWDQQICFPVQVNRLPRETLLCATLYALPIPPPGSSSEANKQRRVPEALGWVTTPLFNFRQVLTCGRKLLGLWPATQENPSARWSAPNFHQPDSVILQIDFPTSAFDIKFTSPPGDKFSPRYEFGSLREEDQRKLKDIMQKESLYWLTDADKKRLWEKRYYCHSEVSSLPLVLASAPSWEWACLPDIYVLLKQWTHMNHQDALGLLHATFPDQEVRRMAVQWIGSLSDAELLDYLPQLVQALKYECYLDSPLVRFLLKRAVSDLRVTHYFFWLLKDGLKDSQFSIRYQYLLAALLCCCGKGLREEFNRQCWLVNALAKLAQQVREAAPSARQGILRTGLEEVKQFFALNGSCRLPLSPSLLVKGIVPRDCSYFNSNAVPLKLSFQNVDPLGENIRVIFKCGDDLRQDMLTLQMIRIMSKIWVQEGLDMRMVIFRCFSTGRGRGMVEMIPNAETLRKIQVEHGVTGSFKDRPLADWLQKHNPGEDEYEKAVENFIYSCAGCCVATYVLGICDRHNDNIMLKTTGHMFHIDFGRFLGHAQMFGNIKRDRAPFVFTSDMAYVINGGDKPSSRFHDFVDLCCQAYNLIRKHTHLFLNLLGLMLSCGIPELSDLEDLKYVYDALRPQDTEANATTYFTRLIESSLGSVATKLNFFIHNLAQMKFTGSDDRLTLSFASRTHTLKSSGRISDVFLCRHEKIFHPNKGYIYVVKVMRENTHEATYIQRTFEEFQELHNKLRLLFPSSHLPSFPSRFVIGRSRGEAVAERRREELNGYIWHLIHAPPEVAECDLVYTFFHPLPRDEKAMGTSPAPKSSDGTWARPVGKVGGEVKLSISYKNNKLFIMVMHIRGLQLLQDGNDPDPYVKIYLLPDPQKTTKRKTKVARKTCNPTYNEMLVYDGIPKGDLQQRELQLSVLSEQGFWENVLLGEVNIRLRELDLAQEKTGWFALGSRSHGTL
T15 sequence (P07949 29-1114): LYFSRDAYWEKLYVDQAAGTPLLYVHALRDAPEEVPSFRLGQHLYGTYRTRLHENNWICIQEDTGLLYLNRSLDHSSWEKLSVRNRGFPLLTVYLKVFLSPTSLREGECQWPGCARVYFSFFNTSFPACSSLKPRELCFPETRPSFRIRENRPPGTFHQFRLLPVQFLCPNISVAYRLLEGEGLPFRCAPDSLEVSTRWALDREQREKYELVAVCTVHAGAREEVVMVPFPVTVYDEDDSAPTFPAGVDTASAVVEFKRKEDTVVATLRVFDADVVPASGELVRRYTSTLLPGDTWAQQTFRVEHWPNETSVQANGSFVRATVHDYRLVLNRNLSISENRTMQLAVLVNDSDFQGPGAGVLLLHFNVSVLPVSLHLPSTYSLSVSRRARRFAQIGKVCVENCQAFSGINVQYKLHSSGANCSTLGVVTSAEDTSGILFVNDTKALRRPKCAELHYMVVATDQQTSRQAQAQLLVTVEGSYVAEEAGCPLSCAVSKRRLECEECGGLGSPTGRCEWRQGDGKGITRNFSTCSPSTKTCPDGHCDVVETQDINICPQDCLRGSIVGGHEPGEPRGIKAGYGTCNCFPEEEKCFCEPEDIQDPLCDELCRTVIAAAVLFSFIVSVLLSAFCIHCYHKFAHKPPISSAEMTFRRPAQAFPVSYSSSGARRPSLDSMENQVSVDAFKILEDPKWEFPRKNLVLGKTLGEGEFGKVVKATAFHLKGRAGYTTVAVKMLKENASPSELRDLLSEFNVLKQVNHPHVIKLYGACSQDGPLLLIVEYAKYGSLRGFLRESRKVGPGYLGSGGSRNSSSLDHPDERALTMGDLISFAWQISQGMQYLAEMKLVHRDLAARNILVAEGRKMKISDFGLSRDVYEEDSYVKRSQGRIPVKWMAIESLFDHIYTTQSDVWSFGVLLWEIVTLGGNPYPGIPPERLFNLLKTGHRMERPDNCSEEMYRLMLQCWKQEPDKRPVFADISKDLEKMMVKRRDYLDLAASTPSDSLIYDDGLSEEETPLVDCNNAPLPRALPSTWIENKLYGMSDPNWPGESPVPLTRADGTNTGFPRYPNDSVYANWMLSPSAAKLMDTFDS
T4 sequence (P42336 whole entry): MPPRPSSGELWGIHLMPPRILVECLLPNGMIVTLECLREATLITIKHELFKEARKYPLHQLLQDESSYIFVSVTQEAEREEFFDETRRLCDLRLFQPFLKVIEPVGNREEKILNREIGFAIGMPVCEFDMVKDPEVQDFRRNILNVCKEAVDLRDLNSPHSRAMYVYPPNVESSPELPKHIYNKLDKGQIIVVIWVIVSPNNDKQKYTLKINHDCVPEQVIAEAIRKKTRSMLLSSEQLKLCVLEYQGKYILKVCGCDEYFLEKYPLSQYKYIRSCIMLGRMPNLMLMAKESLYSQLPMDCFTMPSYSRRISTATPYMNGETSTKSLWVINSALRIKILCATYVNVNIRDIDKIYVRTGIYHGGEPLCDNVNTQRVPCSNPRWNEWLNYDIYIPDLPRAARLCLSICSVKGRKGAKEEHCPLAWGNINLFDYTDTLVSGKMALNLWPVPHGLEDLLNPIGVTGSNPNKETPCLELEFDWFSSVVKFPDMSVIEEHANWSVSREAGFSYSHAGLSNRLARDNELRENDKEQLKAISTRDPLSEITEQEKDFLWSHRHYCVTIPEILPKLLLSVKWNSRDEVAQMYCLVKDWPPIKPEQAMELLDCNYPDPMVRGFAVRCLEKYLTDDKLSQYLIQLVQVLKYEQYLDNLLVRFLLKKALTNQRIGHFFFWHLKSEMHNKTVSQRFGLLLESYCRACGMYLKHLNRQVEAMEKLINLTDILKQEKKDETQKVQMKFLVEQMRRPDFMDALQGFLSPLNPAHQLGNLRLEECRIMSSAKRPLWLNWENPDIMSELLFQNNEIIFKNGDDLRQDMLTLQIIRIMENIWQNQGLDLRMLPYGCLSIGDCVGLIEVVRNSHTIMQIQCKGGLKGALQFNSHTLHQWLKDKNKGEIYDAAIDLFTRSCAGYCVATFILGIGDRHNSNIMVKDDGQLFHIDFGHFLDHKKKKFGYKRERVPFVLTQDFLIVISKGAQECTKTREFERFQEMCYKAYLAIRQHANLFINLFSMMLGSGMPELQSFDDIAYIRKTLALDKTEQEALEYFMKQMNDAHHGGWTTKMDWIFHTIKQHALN

% Ctrl @ 3 μM [1]: 100 % Ctrl | % Ctrl @ 3 μM [2]: 100 % Ctrl | binding activity against panel kinases (% Ctrl) ([3]; 3 μM (3000 nM), ninety-seven kinases): poor or non-existent binding activity | % Ctrl @ 3 μM ([3]; EGFR): 100 % Ctrl | % Ctrl @ 3 μM ([3]; KIT): 100 % Ctrl | % Ctrl @ 3 μM [4]: 92 % Ctrl | % Ctrl @ 3 μM [5]: 100 % Ctrl | % Ctrl @ 3 μM [6]: 100 % Ctrl | % Ctrl @ 3 μM [7]: 97 % Ctrl | % Ctrl @ 3 μM [8]: 87 % Ctrl | % Ctrl @ 3 μM [9]: 100 % Ctrl | % Ctrl @ 3 μM [10]: 100 % Ctrl | % Ctrl @ 3 μM [11]: 84 % Ctrl | % Ctrl @ 3 μM [12]: 100 % Ctrl | % Ctrl @ 3 μM [13]: 100 % Ctrl | % Ctrl @ 3 μM [14]: 97 % Ctrl | % Ctrl @ 3 μM [15]: 100 % Ctrl | % Ctrl @ 3 μM [16]: 95 % Ctrl | % Ctrl @ 3 μM [17]: 80 % Ctrl | % Ctrl @ 3 μM [18]: 100 % Ctrl | % Ctrl @ 3 μM [19]: 96 % Ctrl | % Ctrl @ 3 μM [20]: 100 % Ctrl | % Ctrl @ 3 μM [21]: 93 % Ctrl | % Ctrl @ 3 μM [22]: 93 % Ctrl
SMILES: CN(C)CCNC(=O)c1ccc(-c2ccc(-c3ccc(Cl)cc3)n2-c2ccccc2C(F)(F)F)cc1 (single isomer, unassigned) [Atropisomer A-2]
